Values quoted from earlier work as cited in patent US20170246163A1, “METHODS OF IMPROVING BALANCE, GAIT OR BOTH IN PATIENTS WITH NEUROLOGICAL DISEASE” (priority 2016, published 2017).
Where two headings read alike, the source gives them in different places.

Tests used:
[1] = tested on: subjects with moderate Alzheimer's disease; details: Phase 2
[2] = tested on: subjects with mild-to-moderate Alzheimer's disease; details: 48 weeks
[3] = tested on: PD patients experiencing frequent falls; details: crossover versus placebo, p<0.05
[4] = tested on: patients with either PD, PD-MCI, or PDD; details: 176 patients with PD, 12 months, p<0.01

Compound: COc1cc2c(cc1OC)C(=O)C(CC1CCN(Cc3ccccc3)CC1)C2 (stereo not drawn) [donepezil]
- subjects who experienced falls ([1]; donepezil alone): 6%
- subjects who experienced falls ([2]; donepezil alone): 6%
- falls reported while on treatment [3]: 0.13 falls/day

Compound: Fc1ccc2c(CCNCc3cccc(OCC(F)(F)C(F)F)c3)c[nH]c2c1 [idalopirdine]
- subjects who experienced falls ([1]; on top of donepezil): 2%

Compound: O=S(=O)(c1ccccc1)c1cnc2c(N3CCNCC3)cccc2c1 [intepirdine, 3-phenylsulfonyl-8-piperazinyl-1yl-quinoline]
- subjects who experienced falls ([2]; on top of donepezil): 2%

Compound: CCN(C)C(=O)Oc1cccc([C@H](C)N(C)C)c1 [rivastigmine]
- lowering of the incidence of falls relative to baseline [4]: 50%
